# Reference: patent publication US20260034192A1 (University of Saskatchewan, priority 2022, published 2026)
# “And” between values parts separate entries of the source, which are not always exact repeats. Equal values may be shown once. Marks after values point to notes of the source that are not given here. Square brackets hold non-standard residues; d marks the D form. Peptide text beside a SMILES is read from it. dPhe(4-Cl) = N[C@H](Cc1ccc(Cl)cc1)C(=O)O; d2Nal = N[C@H](Cc1ccc2ccccc2c1)C(=O)O; dCit = NC(=O)NCCC[C@@H](N)C(=O)O; d3Pal = N[C@H](Cc1cccnc1)C(=O)O
# Columns and labels:
# [1] = test system: pubertal Hereford-cross beef heifers; assay: Cetrorelix in luteal versus preovulatory phase, hCG ovulation challenge in heifers (Example 6); assay type: in vivo, cattle; conditions: high and low progesterone, 3 mg i/m
# Experimental: Experimental design: The study was conducted on pubertal Hereford-cross beef heifers (n=24) at the U. Sask. Livestock and Forage Centre of Excellence (LFCE) using a 2×2 factorial design (Table 15). Initial transrectal ultrasonography was performed to confirm post-pubertal or post-partum cyclicity by the presence or absence of a corpus luteum (CL). Animals with a CL were weighed and treated with prostaglandin F2a analog as in Example 4 and monitored by ultrasonography to detect ovulation. Day of ovulation was considered the day of wave emergence (defined as Day 0).
# On the day of ovulation, heifers were randomized into 4 groups. Those in the preovulatory groups were given prostaglandin on Days 4 and 4.5 of the wave while those in the luteal groups were allowed to maintain the CL (i.e., no prostaglandin treatment). Treatments was given as outlined in Table 16 and schematic time line FIG. 8. Cetrorelix groups were given 3 mg cetrorelix i/m on Day 5. All animals were treated with hCG (Chorulon, 1500 IU, im) on Day 7 of the wave (i.e., 48 hr after Cetrorelix/saline treatment) to determine the ovulatory potential of the dominant follicle.
# Blood samples were taken 24 hr after cetrorelix or no treatment (control groups) for measurement of plasma concentrations of LH and progesterone. Data was analyzed in a similar manner to Example 4.
# alpacas = assay: Alpaca Cetrorelix known stage study, two injections (Example 2); assay type: in vivo; conditions: for Wave emergence after the first Cetrorelix injection, average: 2 x 1.5 mg i/m, D5 and D10 groups combined
# From the text: Methods: The specific objective of this experiment was to identify the pattern of growth for the dominant follicle in alpacas following treatment with a GnRH antagonist during two contrasting stages of the follicular wave. Based on data from natural spontaneous waves in alpacas, the dominant follicle is expected to be in early- to mid-growing phase (6 to 7 mm in diameter) on Day 5 and in mid-static phase (9 to 10 mm) on Day 10, so the treatments were planned to begin on these days.
# The experimental design is illustrated FIG. 3. Transrectal ovarian ultrasonography was performed using an Esoate My Lab 5 ultrasound machine and a 7.5 linear array transducer attached to a custom-build rigid PVC pipe handle. The pipe was slightly curved at the transducer end to facilitate manipulation of the transducer. The transducer and the plastic handle were lubricated using methyl cellulose ultrasound gel and inserted slowly into the rectum after manual removal of the faeces. Reproductive track and ovaries were located and 10 to 20 second video clips of left and right ovary were recorded. Sketches of ovaries were drawn daily at the time of imaging to record location, size and number of follicles >2 mm in diameter as well as the size and location of the corpus luteum (if present). Ultrasound examinations were performed daily. The experimental data recording began when a spontaneous emergence of a new follicular wave detected in an animal (defined as Extant follicular wave). The day of wave emergence was designated as Day 0 and was defined retrospectively as the first detection of the dominant follicle at 4 or 5 mm size with concomitant increase in number of 3-4 mm follicles.
# The first group of alpacas (Control group) were given no treatment, their ovaries were examined daily and blood samples were obtained daily from Day 4 to 12 to compare hormonal data from analogous days after Cetrorelix treatment. The second group of alpacas (D5 group) were given the first intramuscular injection of 1.5 mg (3 mL of 0.5 mg per mL solution) Cetrorelix acetate on Day 5 and a second injection of 3 mL on Day 6 (i.e., two i/m injections of 1.5 mg Cetrorelix at 24 hour interval for a total dose of 3 mg). The Cetrorelix dose administered was approximately equal to 20 ug/Kg body weight per day (considering average body weight of alpaca=75 kg) and based on the previous studies in llama and cattle (Silva et al, 2011, Ulker et al 2001). Alpacas in the third group (D10 group) were given the first intramuscular injection of 1.5 mg Cetrorelix acetate on Day 10 and a second injection of 1.5 mg on Day 11.
# Cetrorelix treatments were given during the extant follicular wave. Changes in the size of the dominant follicle, largest subordinate follicle, and the number of ≥3 mm follicles were recorded daily from spontaneous emergence of extant follicular wave to Day 6 of next (post-treatment) follicular wave emergence. The inter-wave interval was determined based on duration between emergence of successive follicular waves.
# Blood samples (5 to 8 mL) were collected in heparinized tubes (BD Vacutainer, BD Franklin Lakes, NJ, USA) via jugular venipuncture. Blood samples were kept on ice packs till centrifugation at 200 rpm (within 1 hr of collection) to obtain plasma samples that were immediately frozen at −20° C. until measurement of plasma LH. Plasma samples were obtained on Day 4 to 7 in Group 2 (that is, 1 day before to 1 day after Cetrorelix treatment) and on Day 9 to 12 in Group 3. For direct comparison, plasma samples were obtained from Day 4 to 12 in control group.
# [2] = 2 x 1.5 mg i/m starting Day 5 (D 5)
# [3] = 2 x 1.5 mg i/m starting Day 10 (D 10)
# [4] = 2 x 1.5 mg i/m starting Day 10 (D 10), n = 6
smiles,measurement,setting,value
"CC(=O)N[C@H](Cc1ccc2ccccc2c1)C(=O)N[C@H](Cc1ccc(Cl)cc1)C(=O)N[C@H](Cc1cccnc1)C(=O)N[C@@H](CO)C(=O)N[C@@H](Cc1ccc(O)cc1)C(=O)N[C@H](CCCNC(N)=O)C(=O)N[C@@H](CC(C)C)C(=O)N[C@@H](CCCNC(=N)N)C(=O)N1CCC[C@H]1C(=O)N[C@H](C)C(N)=O [Cetrorelix, N-acetyl-3-(2-naphthyl)-D-alanyl-4-chloro-D-phenylalanyl-3-(3-pyridyl)-D-alanyl-L-seryl-L-tyrosyl-D-citrullyl-L-leucyl-L-arginyl-L-prolyl-D-alaninamide] (Ac-[d2Nal][dPhe(4-Cl)][d3Pal]SY[dCit]LRP[dA]-NH2)",Time for which dominant/pre-ovulatory follicle maintains ovulatory potential after cetrorelix treatment,[1],at least 48 hr
same,Extant Wave: Total Number of Follicles on Day of Emergence,alpacas; 1.5 mg Cetrorelix acetate i/m twice at 24 hr interval starting Day 5 (D 5),10.71 ± 0.97
same,Extant Wave: Total Number of Follicles on Day of Emergence,alpacas; 1.5 mg Cetrorelix acetate i/m twice at 24 hr interval starting Day 10 (D 10),9.14 ± 1.39
same,Day of largest subordinate follicle maximum diameter,alpacas; [2],1.86 ± 1.01 days
same,Degree of Synchrony: Days from treatment to next wave emergence,alpacas; [2],7.71 ± 0.36 days and 7.7 ± 0.36 days
same,Dominant Follicle Diameter on Day 5 (mm),alpacas; [2],6.64 ± 0.43 mm
same,Dominant Follicle Diameter on Day 10 (mm),alpacas; [2],5.50 ± 0.87^b mm
same,Dominant Follicle Diameter on Day of Cetrorelix Treatment (mm),alpacas; [2],6.64 ± 0.43^a mm
same,Dominant Follicle End of Growth (days),alpacas; [2],4.86 ± 0.40^b days
same,Interwave Interval,alpacas; [2],12.7 ± 0.36 days and 12.7 days
same,Interwave Interval (days),alpacas; [2],12.71 ± 0.36^b days
same,Largest Subordinate Follicle Diameter on Day 5 (mm),alpacas; [2],3.21 ± 0.21 mm
same,Largest Subordinate Follicle Diameter on Day 10 (mm),alpacas; [2],2.71 ± 0.81 mm
same,Largest Subordinate Follicle Diameter on Day of Cetrorelix Treatment (mm),alpacas; [2],3.21 ± 0.21 mm
same,Largest Subordinate Follicle Maximum Diameter (mm),alpacas; [2],4.57 ± 0.40 mm
same,Next Wave: Total Number of Follicles on Day of Emergence,alpacas; [2],13.14 ± 1.47
same,Day of dominant follicle maximum diameter,alpacas; [3],10.3±0.68 days and 10.29 ± 0.68^a days
same,Day of largest subordinate follicle maximum diameter,alpacas; [3],6.00 ± 1.36 days
same,Dominant Follicle Diameter on Day 5 (mm),alpacas; [3],9.71 ± 1.77 mm
same,Dominant Follicle Diameter on Day 10 (mm),alpacas; [3],10.36 ± 0.85^a mm
same,Dominant Follicle Diameter on Day of Cetrorelix Treatment (mm),alpacas; [3],10.36 ± 0.85^b mm
same,Dominant Follicle End of Growth (days),alpacas; [3],8.00 ± 0.38^a days
same,Dominant Follicle Length of Static Phase,alpacas; [3],4.9 ± 0.40 days
same,Dominant Follicle Length of Static Phase (days),alpacas; [3],4.86 ± 0.40^ab days
same,Dominant Follicle Maximum Diameter (mm),alpacas; [3],10.9±0.70 mm and 10.93 ± 0.70^a mm
same,Dominant Follicle Onset of Regression,alpacas; [3],12.9 ± 0.34 days
same,Dominant Follicle Onset of Regression (days),alpacas; [3],12.86 ± 0.34^a days
same,Largest Subordinate Follicle Diameter on Day 5 (mm),alpacas; [3],4.21 ± 0.76 mm
same,Largest Subordinate Follicle Diameter on Day 10 (mm),alpacas; [3],4.00 ± 0.97 mm
same,Largest Subordinate Follicle Diameter on Day of Cetrorelix Treatment (mm),alpacas; [3],4.00 ± 0.97 mm
same,Largest Subordinate Follicle Maximum Diameter (mm),alpacas; [3],5.79 ± 1.02 mm
same,Interwave Interval,alpacas; [4],17.71 ± 0.52 days and 18.17 days
same,Interwave Interval (days),alpacas; [4],17.71 ± 0.52^c# days
same,Next Wave: Total Number of Follicles on Day of Emergence,alpacas; [4],12.14 ± 1.08
same,"Wave emergence after the first Cetrorelix injection, average",alpacas,7.92 ± 0.24 days
same,"Wave emergence after the first Cetrorelix injection, average",alpacas; listed as Cetrorelix acetate,about 7.92±0.24 days
same,"Interval from first treatment to next wave emergence, range",alpacas; D5 group,7 to 9 days
same,"Interval from first treatment to next wave emergence, range",alpacas; D10 group,7 to 9 days
